Data reported in patent US20200172529A1, “Chemical Compound, Pharmaceutical Composition Thereof, and Use and Application Thereof” (Beijing Hanmi Pharm. Co., Ltd., priority 2017, published 2020).
pIC50: −log10 of the molar value.

Tests used:
Type in all cases: biochemical
JAK2 kinase = JAK2 kinase (Homo sapiens, UniProt O60674); assay: Inhibition assay of JAK2 kinase activity (ADP-Glo Kinase Assay)
Text: Inhibition assay of JAK2 kinase activity: the method in ADP-Glo™ Kinase Assay (Promega, V9102) was used to determine the inhibitory activity of the test compounds against JAK2 kinase.

JAK1 kinase = JAK1 kinase (Homo sapiens, UniProt P23458); assay: Inhibition assay of JAK1 kinase activity (ADP-Glo Kinase Assay)
JAK1 kinase, sequence (P23458 whole entry): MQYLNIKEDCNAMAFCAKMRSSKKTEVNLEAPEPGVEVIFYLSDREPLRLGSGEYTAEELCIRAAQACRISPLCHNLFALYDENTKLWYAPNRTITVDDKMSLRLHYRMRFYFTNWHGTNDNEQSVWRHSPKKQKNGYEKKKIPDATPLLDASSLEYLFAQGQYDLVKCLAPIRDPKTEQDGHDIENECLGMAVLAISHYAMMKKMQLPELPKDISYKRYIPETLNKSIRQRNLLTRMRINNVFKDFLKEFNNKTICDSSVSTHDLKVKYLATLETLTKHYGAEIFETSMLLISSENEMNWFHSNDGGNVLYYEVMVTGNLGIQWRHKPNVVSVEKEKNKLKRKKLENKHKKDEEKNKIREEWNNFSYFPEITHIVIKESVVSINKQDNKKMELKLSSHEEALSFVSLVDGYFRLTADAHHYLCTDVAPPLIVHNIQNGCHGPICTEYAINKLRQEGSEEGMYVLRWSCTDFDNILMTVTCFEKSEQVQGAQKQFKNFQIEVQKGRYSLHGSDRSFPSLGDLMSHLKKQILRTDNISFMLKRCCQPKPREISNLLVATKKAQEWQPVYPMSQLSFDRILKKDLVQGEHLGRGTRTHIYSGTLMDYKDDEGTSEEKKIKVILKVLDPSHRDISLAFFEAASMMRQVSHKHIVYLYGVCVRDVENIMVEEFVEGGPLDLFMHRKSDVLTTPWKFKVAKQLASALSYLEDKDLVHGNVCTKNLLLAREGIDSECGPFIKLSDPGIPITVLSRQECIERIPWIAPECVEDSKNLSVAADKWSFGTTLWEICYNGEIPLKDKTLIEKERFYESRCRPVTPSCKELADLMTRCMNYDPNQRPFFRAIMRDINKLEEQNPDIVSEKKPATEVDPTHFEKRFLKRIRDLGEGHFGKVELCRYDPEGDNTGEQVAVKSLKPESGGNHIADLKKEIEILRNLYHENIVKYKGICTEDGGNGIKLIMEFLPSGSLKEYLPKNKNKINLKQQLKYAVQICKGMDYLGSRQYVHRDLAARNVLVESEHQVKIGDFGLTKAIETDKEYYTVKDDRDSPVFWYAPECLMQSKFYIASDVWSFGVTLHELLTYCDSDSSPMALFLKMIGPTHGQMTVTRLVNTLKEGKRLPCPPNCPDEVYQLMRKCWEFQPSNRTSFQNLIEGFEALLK
Text: Inhibition assay of JAK1 kinase activity: the method in ADP-Glo™ Kinase Assay (Promega, V9102) was used to determine the inhibitory activity of the test compounds against JAK1 kinase.

TYK2 kinase = biological target: T1, TYK2 kinase (Homo sapiens, UniProt P29597); assay: Inhibition assay of TYK2 kinase activity (ADP-Glo Kinase Assay)
T1 construct: purchased Life Technologies PR8440C
T1 sequence (P29597 whole entry): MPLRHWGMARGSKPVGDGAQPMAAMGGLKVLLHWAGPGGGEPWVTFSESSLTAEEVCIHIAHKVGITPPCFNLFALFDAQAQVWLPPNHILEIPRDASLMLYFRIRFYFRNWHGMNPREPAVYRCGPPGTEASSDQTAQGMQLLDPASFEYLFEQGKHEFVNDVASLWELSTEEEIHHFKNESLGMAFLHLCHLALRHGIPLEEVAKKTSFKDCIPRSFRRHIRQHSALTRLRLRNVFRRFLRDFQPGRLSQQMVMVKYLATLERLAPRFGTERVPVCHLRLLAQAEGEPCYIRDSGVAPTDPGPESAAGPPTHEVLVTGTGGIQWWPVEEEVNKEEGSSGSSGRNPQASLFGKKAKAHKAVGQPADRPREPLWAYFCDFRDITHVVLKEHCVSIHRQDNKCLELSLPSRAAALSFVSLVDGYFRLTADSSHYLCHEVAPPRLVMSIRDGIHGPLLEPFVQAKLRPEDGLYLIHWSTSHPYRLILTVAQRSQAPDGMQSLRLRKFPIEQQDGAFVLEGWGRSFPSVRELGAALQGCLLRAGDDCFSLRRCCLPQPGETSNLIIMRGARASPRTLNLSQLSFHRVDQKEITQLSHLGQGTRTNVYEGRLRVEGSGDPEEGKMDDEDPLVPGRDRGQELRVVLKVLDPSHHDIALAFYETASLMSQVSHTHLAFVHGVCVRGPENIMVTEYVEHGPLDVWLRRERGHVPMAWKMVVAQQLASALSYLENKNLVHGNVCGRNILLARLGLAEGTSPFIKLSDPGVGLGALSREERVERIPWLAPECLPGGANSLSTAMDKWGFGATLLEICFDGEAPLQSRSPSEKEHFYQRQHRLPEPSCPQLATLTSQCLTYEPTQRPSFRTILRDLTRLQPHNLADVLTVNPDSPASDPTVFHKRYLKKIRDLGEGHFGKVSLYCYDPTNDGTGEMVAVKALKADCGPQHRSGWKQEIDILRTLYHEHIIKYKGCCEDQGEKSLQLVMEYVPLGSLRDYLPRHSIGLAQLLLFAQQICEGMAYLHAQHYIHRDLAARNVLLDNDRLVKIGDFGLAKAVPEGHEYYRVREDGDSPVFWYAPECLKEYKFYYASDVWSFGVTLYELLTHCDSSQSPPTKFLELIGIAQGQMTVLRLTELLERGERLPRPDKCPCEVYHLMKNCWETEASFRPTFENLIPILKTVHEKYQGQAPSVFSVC
Procedure: Determination of inhibition of TYK2 kinase activity by the examples compounds disclosed herein
Inhibition assay of TYK2 kinase activity: the method of ADP-Glo™ Kinase Assay (Promega, V9102) was used to determine the inhibitory activity of the test compounds against TYK2 kinase.
TYK2 kinase (purchased from Life Technologies, article number: PR8440C) was diluted to the 2-fold final concentration (0.8 ng/mL) using reaction buffer (40 mM Tris-HCl, pH 7.5; 20 mM MgCl2; 0.1 mg/mL BSA; 1 mM DTT), and added to a 384-well plate at 5 μL/well. The test drugs were subjected to a 10-fold gradient dilution, from 10 μM, to obtain 6 concentrations, and added to experimental wells of the 384-well plate at 2.5 μL/well. 5 μL of water and 2.5 μL of buffer were added to negative control wells. 5 μL of TYK2 and 2.5 μL of water were added to positive control wells. After incubating for 10 minutes at room temperature, the substrate ATP and polyE4Y1 (Sigma, P0275) were added at 2.5 μL/well, mixed well, and then reacted at room temperature for 60 minutes. After the reaction was completed, the kinase activity was detected according to the instruction of the kit. First, the ADP-Glo reaction reagent was added at 10 μL/well, mixed well, and reacted at room temperature for 40 minutes. The kinase detection reagent was then added at 20 μL/well, mixed well, and then reacted at room temperature for 30 minutes. The detection was then performed and the IC50s of test drugs were calculated.

JAK3 kinase = biological target: T2, JAK3 kinase (Homo sapiens, UniProt P52333); assay: Inhibition assay of JAK3 kinase activity (ADP-Glo Kinase Assay)
T2 sequence (P52333 1-1124): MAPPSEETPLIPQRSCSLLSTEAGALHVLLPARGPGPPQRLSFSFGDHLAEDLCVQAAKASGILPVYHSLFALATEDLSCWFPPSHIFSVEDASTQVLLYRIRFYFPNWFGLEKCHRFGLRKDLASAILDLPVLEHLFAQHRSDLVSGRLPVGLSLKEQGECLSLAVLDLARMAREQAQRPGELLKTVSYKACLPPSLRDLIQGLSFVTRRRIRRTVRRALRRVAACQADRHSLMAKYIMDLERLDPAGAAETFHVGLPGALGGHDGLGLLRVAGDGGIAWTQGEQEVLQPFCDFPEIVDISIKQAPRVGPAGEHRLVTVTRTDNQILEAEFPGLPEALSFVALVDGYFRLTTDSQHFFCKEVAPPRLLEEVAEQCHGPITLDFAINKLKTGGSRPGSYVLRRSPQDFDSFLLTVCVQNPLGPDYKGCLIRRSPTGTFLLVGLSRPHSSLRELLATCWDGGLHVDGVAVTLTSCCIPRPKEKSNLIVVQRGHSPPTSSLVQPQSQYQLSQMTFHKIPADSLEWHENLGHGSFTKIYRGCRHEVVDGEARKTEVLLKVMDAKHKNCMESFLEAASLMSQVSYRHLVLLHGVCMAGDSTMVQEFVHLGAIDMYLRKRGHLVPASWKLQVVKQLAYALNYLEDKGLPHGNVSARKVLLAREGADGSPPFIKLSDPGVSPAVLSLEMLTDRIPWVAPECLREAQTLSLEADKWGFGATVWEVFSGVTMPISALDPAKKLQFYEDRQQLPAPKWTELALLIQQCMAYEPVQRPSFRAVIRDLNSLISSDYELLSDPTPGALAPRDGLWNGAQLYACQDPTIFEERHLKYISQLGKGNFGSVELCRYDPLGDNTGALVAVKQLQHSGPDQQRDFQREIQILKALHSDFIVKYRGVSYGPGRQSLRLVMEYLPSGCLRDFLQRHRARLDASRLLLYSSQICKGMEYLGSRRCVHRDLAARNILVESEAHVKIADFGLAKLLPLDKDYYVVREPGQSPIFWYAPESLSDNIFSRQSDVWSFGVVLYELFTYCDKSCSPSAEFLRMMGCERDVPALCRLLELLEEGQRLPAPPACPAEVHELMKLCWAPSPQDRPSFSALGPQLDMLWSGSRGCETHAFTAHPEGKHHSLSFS
Text: Inhibition assay of JAK3 kinase activity: the method in ADP-Glo™ Kinase Assay (Promega, V9102) was used to determine the inhibitory activity of the test compounds against JAK3 kinase.

JAK2 kinase, sequence (O60674 whole entry): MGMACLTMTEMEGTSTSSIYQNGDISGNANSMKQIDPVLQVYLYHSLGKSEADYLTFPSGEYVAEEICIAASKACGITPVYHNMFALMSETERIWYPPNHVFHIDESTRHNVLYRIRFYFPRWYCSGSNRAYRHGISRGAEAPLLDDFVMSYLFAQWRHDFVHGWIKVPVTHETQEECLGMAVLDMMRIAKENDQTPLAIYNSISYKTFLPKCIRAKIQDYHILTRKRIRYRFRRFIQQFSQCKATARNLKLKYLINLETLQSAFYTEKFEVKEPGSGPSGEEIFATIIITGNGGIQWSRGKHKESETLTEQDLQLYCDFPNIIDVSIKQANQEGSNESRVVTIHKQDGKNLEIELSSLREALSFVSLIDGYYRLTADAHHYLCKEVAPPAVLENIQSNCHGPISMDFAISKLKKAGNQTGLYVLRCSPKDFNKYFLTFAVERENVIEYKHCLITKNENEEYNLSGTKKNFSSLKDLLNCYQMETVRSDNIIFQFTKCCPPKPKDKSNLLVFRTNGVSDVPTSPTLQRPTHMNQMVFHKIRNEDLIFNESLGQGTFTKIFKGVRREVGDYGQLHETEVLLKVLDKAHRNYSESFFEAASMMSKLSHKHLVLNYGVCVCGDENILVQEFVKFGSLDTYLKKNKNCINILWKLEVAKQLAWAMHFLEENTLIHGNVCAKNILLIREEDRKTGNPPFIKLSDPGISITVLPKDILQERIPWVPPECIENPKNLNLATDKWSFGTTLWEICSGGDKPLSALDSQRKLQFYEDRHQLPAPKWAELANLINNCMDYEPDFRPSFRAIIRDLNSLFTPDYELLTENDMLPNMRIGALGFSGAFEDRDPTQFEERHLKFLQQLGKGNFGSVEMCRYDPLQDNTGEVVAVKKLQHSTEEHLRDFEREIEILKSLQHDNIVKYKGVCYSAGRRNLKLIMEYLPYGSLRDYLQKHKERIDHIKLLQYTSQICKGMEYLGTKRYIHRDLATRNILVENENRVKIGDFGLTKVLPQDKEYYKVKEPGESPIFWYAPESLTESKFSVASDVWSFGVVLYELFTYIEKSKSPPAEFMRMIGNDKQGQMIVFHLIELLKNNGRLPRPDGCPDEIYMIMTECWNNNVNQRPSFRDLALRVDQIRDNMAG

| pIC50 (JAK2 kinase) | pIC50 (JAK1 kinase) | pIC50 (TYK2 kinase) | pIC50 (JAK3 kinase) | Structure (SMILES) |
| --- | --- | --- | --- | --- |
| > 8.00 | > 8.00 | > 8.00 | > 8.00 | CO[C@H]1CNc2cc(Nc3ncc(C(N)=O)c(NC4C5CC6CC4CC(OC)(C6)C5)n3)ccc2OC1 (stereo partly drawn) [Example 93, 4-((5-methoxyadamantan-2-yl)amino)-2-(((S)-2,3,4,5-tetrahydro-3-methoxybenzo[b][1,4]oxazepin-7-yl)amino)pyrimidin-5-carboxamide] |
| > 8.00 | > 8.00 | > 8.00 | > 8.00 | CCCCNc1nc(Nc2ccc3c(c2)NC[C@H](O)CO3)ncc1C(N)=O [Example 74, 4-(butylamino)-2-(((S)-2,3,4,5-tetrahydro-3-hydroxybenzo[b][1,4]oxazepin-7-yl)amino)pyrimidin-5-carboxamide] |
| > 8.00 | > 8.00 | > 8.00 | > 8.00 | NC(=O)c1cnc(Nc2ccc3c(c2)NC[C@H](O)CO3)nc1NCC1CCCC1 [Example 73, 4-((cyclopentylmethyl)amino)-2-(((S)-2,3,4,5-tetrahydro-3-hydroxybenzo[b][1,4]oxazepin-7-yl)amino)pyrimidin-5-carboxamide] |
| > 8.00 | > 8.00 | > 8.00 | > 8.00 | NC(=O)c1cnc(Nc2ccc3c(c2)NC[C@H](O)CO3)nc1Nc1ccc2[nH]ccc2c1 [Example 34, 4-((1H-indol-5-yl)amino)-2-(((S)-2,3,4,5-tetrahydro-3-hydroxybenzo[b][1,4]oxazepin-7-yl)amino)pyrimidin-5-carboxamide] |
| 7.00 to 8.00 | > 8.00 | > 8.00 | 7.00 to 8.00 | CCCO[C@H]1CNc2cc(Nc3ncc(C(N)=O)c(NC4CC4)n3)ccc2OC1 [Example 82, 4-(cyclopropylamino)-2-(((S)-2,3,4,5-tetrahydro-3-propoxybenzo[b][1,4]oxazepin-7-yl)amino)pyrimidin-5-carboxamide] |
| 7.00 to 8.00 | > 8.00 | > 8.00 | 7.00 to 8.00 | C#CCNc1nc(Nc2ccc3c(c2)NC[C@H](O)CO3)ncc1C(N)=O [Example 65, 4-(prop-2-yn-1-ylamino)-2-(((S)-2,3,4,5-tetrahydro-3-hydroxybenzo[b][1,4]oxazepin-7-yl)amino)pyrimidin-5-carboxamide] |
| 7.00 to 8.00 | 7.00 to 8.00 | > 8.00 | 7.00 to 8.00 | NC(=O)c1cnc(Nc2ccc3c(c2)NC[C@H](O)CO3)nc1NCCCO [Example 51, 4-((3-hydroxypropyl)amino)-2-(((S)-2,3,4,5-tetrahydro-3-hydroxybenzo[b][1,4]oxazepin-7-yl)amino)pyrimidin-5-carboxamide] |
| > 8.00 | > 8.00 | > 8.00 | > 8.00 | NC(=O)c1cnc(Nc2ccc3c(c2)NC[C@H](O)CO3)nc1NC1C2CC3CC1CC(O)(C3)C2 (stereo partly drawn) [Example 38, 4-((1-hydroxyadamantan-4-yl)amino)-2-(((S)-2,3,4,5-tetrahydro-3-hydroxybenzo[b][1,4]oxazepin-7-yl)amino)pyrimidin-5-carboxamide] |
|  |  | > 8.00 | 7.00 to 8.00 | NC(=O)c1cnc(Nc2ccc3c(c2)NCCCO3)nc1NC1CC1 [Example 77, 4-(cyclopropylamino)-2-((2,3,4,5-tetrahydrobenzo[b][1,4]oxazepin-7-yl)amino)pyrimidin-5-carboxamide] |

| Structure (SMILES) | pIC50 (JAK2 kinase) | pIC50 (JAK1 kinase) | pIC50 (TYK2 kinase) | pIC50 (JAK3 kinase) |
| --- | --- | --- | --- | --- |
| CC(C)(C)OCCO[C@H]1CNc2cc(Nc3ncc(C(N)=O)c(NC4CC4)n3)ccc2OC1 [Example 103, 4-(cyclopropylamino)-2-(((S)-2,3,4,5-tetrahydro-3-(2-(tert-butoxy)ethoxy)benzo[b][1,4]oxazepin-7-yl)amino)pyrimidin-5-carboxamide] | 7.00 to 8.00 | > 8.00 | > 8.00 | 7.00 to 8.00 |
| CCCCO[C@H]1CNc2cc(Nc3ncc(C(N)=O)c(NC4CC4)n3)ccc2OC1 [Example 81, 4-(cyclopropylamino)-2-(((S)-2,3,4,5-tetrahydro-3-butoxybenzo[b][1,4]oxazepin-7-yl)amino)pyrimidin-5-carboxamide] |  | 7.00 to 8.00 | > 8.00 | 7.00 to 8.00 |
